The record followed here is patent US11534457B2, “Use of dextran sulfate” (priority 2017, dated 2022).

Common to all, as to assay type: cell-based, Human
Test [1] relates to KF3CT system [keratinocytes and HDFn+(IL-1β, TNFα, IFNγ and TGFβ)]. The test is described as follows: BioMAP KF3CT system. The source says: (§1) In this study LMW-DS was characterized by profiling in the BioMAP® Diversity PLUS panel. The BioMAP® panel consists of human primary cell-based systems designed to model different aspects of the human body in an in vitro format. The 12 systems in the BioMAP® Diversity PLUS panel (Table 32) allow test agent characterization in an unbiased way across a broad set of systems modeling various human disease states. The BioMA®P systems are constructed with one or more primary cell types from healthy human donors, with stimuli, such as cytokines or growth factors, added to capture relevant signaling networks that naturally occur in human tissue or pathological conditions. […]
(§2) Systems are derived from either single cell types or co-culture systems. […] Test agents prepared in either DMSO (small molecules; final concentration 0.1%) or PBS (biologics) are added at the indicated concentrations 1-hr before stimulation, and remain in culture for 24-hrs or as otherwise indicated (48-hrs, MyoF system; 72-hrs, BT system (soluble readouts); 168-hrs, BT system (secreted IgG)). […] Soluble factors from supernatants are quantified using either HTRF® detection, bead-based multiplex immunoassay or capture ELISA. Overt adverse effects of test agents on cell proliferation and viability (cytotoxicity) are detected by sulforhodamine B (SRB) staining, for adherent cells, and alamarBlue® reduction for cells in suspension. […]

In test [2] the test system is MyoF system [differentiated lung myofibroblasts+(TNFα and TGFβ)]. The test is described as follows: BioMAP MyoF system.
Text: as §1, §2

Test [3] relates to SAg system [PBMC and HUVEC+TCR ligands]. The test is described as follows: BioMAP SAg system.
Text: as §1, §2

Test [4] relates to HDF3CGF system [HDFn+(IL-1β, TNFα, IFNγ, EGF, bFGF and PDGF-BB)]. The test is described as follows: BioMAP HDF3CGF system.
Text: as §1, with “conditions. Vascular biology is modeled in both a Th1 (3C system) and a Th2 (4H system) inflammatory environment, as well as in a Th1 inflammatory state specific to arterial smooth muscle cells (CASM3C system).” for “conditions.”
as §2, with “suspension. For proliferation assays, individual cell types are cultured at subconfluence and measured at time points optimized for each system (48-hrs: 3C and CASM3C systems; 72-hrs: BT and HDF3CGF systems; 96-hrs: SAg system).” for “suspension.”

Test [5] deals with LPS system [PBMC and HUVEC+LPS (TLR4 ligand)]. The test is described as follows: BioMAP LPS system.
Text: as §1, §2

Test [6] has as its system BT system [CD19^+ B cells and PBMC+(a-IgM and TCR ligands)]. The test is described as follows: BioMAP BT system. The source says: In this study LMW-DS was characterized by profiling in the BioMAP® Diversity PLUS panel. The BioMAP® panel consists of human primary cell-based systems designed to model different aspects of the human body in an in vitro format. The 12 systems in the BioMAP® Diversity PLUS panel (Table 32) allow test agent characterization in an unbiased way across a broad set of systems modeling various human disease states. The BioMA®P systems are constructed with one or more primary cell types from healthy human donors, with stimuli, such as cytokines or growth factors, added to capture relevant signaling networks that naturally occur in human tissue or pathological conditions. Vascular biology is modeled in both a Th1 (3C system) and a Th2 (4H system) inflammatory environment, as well as in a Th1 inflammatory state specific to arterial smooth muscle cells (CASM3C system). Additional systems recapitulate aspects of the systemic immune response including monocyte-driven Th1 inflammation (LPS system) or T cell stimulation (SAg system), chronic Th1 inflammation driven by macrophage activation (IMphg system) and the T cell-dependent activation of B cells that occurs in germinal centers (BT system). The BE3C system (Th1) and the BF4T system (Th2) represent airway inflammation of the lung, while the MyoF system models myofibroblast-lung tissue remodeling. Lastly, skin biology is addressed in the KF3CT system modeling Th1 cutaneous inflammation and the HDF3CGF system modeling wound healing.
Four concentrations of LMW-DS (150 nM, 440 nM, 1.3 μM, 4 μM) were investigated in the BioMAP® Diversity PLUS panel by Eurofins.
Cell types and stimuli used in each system are as follows: 3C system [HUVEC+(IL-1β, TNFα and IFNγ)], 4H system [HUVEC+(IL-4 and histamine)], LPS system [PBMC and HUVEC+LPS (TLR4 ligand)], SAg system [PBMC and HUVEC+TCR ligands], BT system [CD19^+ B cells and PBMC+(a-IgM and TCR ligands)], BF4T system [bronchial epithelial cells and HDFn+(TNFα and IL-4)], BE3C system [bronchial epithelial cells+(IL-1β, TNFα and IFNγ)], CASM3C system [coronary artery smooth muscle cells+(IL-1β, TNFα and IFNγ)], HDF3CGF system [HDFn+(IL-1β, TNFα, IFNγ, EGF, bFGF and PDGF-BB)], KF3CT system [keratinocytes and HDFn+(IL-1β, TNFα, IFNγ and TGFβ)], MyoF system [differentiated lung myofibroblasts+(TNFα and TGFβ)] and /Mphg system [HUVEC and M1 macrophages+Zymosan (TLR2 ligand)].
Systems are derived from either single cell types or co-culture systems. Adherent cell types are cultured in 96 or 384-well plates until confluence, followed by the addition of PBMC (SAg and LPS systems). The BT system consists of CD19+ B cells co-cultured with PBMC and stimulated with a BCR activator and low levels of TCR stimulation. Test agents prepared in either DMSO (small molecules; final concentration 0.1%) or PBS (biologics) are added at the indicated concentrations 1-hr before stimulation, and remain in culture for 24-hrs or as otherwise indicated (48-hrs, MyoF system; 72-hrs, BT system (soluble readouts); 168-hrs, BT system (secreted IgG)). Each plate contains drug controls (e.g., legacy control test agent colchicine at 1.1 μM), negative controls (e.g., non-stimulated conditions) and vehicle controls (e.g., 0.1% DMSO) appropriate for each system. Direct ELISA is used to measure biomarker levels of cell-associated and cell membrane targets. Soluble factors from supernatants are quantified using either HTRF® detection, bead-based multiplex immunoassay or capture ELISA. Overt adverse effects of test agents on cell proliferation and viability (cytotoxicity) are detected by sulforhodamine B (SRB) staining, for adherent cells, and alamarBlue® reduction for cells in suspension. For proliferation assays, individual cell types are cultured at subconfluence and measured at time points optimized for each system (48-hrs: 3C and CASM3C systems; 72-hrs: BT and HDF3CGF systems; 96-hrs: SAg system). […]

“Also recorded” adds a separate entry of the source.

Take “low molecular weight dextran sulfate [LMW-DS]”: the Decreased biomarker activity entry in test [1] was “MCP-1”; in test [4] (HDF3CGF system) it was “VCAM-1, IP-10,; also recorded: ITAC, MIG, M-CSF”; in test [5], “sTNFα”; in test [6] (BT system), “sIgG, sIL-17F”. The Increased biomarker activity entry in test [1] is “IL-8”; in test [2] (MyoF system), “IL-8”; in test [3], “IL-8”; in test [4] (HDF3CGF system), “EGFR, MMP-1,; also recorded: PAI-1”; in test [5], “IL-8”; in test [6] (BT system), “sIL-17A”. Moreover, the biomarker activities modulated result in test [2] is on record as “merely IL-8”. Also, in test [4] (all tested concentrations), the “key inflammation biomarkers including MIG, VCAM, IP-10 and ITAC” value is “decreased over all tested concentrations”. In test [6], the IL-17A entry is reported as “decreased”. Also, in test [6], the IL-17F entry is “decreased”. Also, in test [6], the “antiproliferative effects on B cells” value is “without any antiproliferative effects”. Besides, the sIgG entry in test [6] was “decreased”.
